Results from PubChem BioAssay (NCI).
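GI50 marks 50% less growth. TGI: total growth inhibition.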

How the values were obtained:
Test in all cases: NCI anticancer screen, dose series, 384-well format
MDA-MB-231 breast = test system: MDA-MB-231 breast
LOX IMVI melanoma = test system: LOX IMVI melanoma
HCC-2998 colon = test system: HCC-2998 colon
MALME-3M melanoma = test system: MALME-3M melanoma
RPMI-8226 leukemia = test system: RPMI-8226 leukemia
HT29 colon = test system: HT29 colon
SF-539 CNS = test system: SF-539 CNS
SR leukemia = test system: SR leukemia
MDA-MB-468 breast = test system: MDA-MB-468 breast
OVCAR-3 ovarian = test system: OVCAR-3 ovarian
SK-MEL-28 melanoma = test system: SK-MEL-28 melanoma
IGROV1 ovarian = test system: IGROV1 ovarian
ACHN renal = test system: ACHN renal
NCI-H522 lung = test system: NCI-H522 lung
HCT-15 colon = test system: HCT-15 colon
SN12C renal = test system: SN12C renal
SK-OV-3 ovarian = test system: SK-OV-3 ovarian
CAKI-1 renal = test system: CAKI-1 renal
UO-31 renal = test system: UO-31 renal
EKVX NSCLC = test system: EKVX NSCLC
CCRF-CEM leukemia = test system: CCRF-CEM leukemia
K-562 leukemia = test system: K-562 leukemia
PC-3 prostate = test system: PC-3 prostate
OVCAR-4 ovarian = test system: OVCAR-4 ovarian
NCI-H226 lung = test system: NCI-H226 lung
SF-295 CNS = test system: SF-295 CNS
HOP-62 NSCLC = test system: HOP-62 NSCLC
COLO 205 colon = test system: COLO 205 colon
DU-145 prostate = test system: DU-145 prostate
SNB-19 CNS = test system: SNB-19 CNS
TK-10 renal = test system: TK-10 renal
SK-MEL-5 melanoma = test system: SK-MEL-5 melanoma
HL-60(TB) leukemia = test system: HL-60(TB) leukemia
T-47D breast = test system: T-47D breast
MOLT-4 leukemia = test system: MOLT-4 leukemia
NCI/ADR-RES ovarian = test system: NCI/ADR-RES ovarian
SF-268 CNS = test system: SF-268 CNS
RXF 393 renal = test system: RXF 393 renal
SNB-75 CNS = test system: SNB-75 CNS
786-0 renal = test system: 786-0 renal
MCF7 breast = test system: MCF7 breast
KM12 colon = test system: KM12 colon
HS 578T breast = test system: HS 578T breast
MDA-MB-435 melanoma = test system: MDA-MB-435 melanoma
A498 renal = test system: A498 renal
UACC-257 melanoma = test system: UACC-257 melanoma
UACC-62 melanoma = test system: UACC-62 melanoma
M14 melanoma = test system: M14 melanoma
OVCAR-8 ovarian = test system: OVCAR-8 ovarian
NCI-H460 NSCLC = test system: NCI-H460 NSCLC
A549 NSCLC = test system: A549 NSCLC
SW-620 colon = test system: SW-620 colon
OVCAR-5 ovarian = test system: OVCAR-5 ovarian
HOP-92 NSCLC = test system: HOP-92 NSCLC
NCI-H322M lung = test system: NCI-H322M lung
NCI-H23 lung = test system: NCI-H23 lung
BT-549 breast = test system: BT-549 breast

SMILES: CC(=O)Nc1nc(C)c(-c2cc3c(c(S(C)(=O)=O)c2)C(=O)N([C@@H](C)C2CC2)C3)s1
- GI50 (MDA-MB-231 breast): 22.3 µM
- TGI (MDA-MB-231 breast): > 100 µM
- GI50 (LOX IMVI melanoma): 28.2 µM
- TGI (LOX IMVI melanoma): 86.3 µM
- GI50 (HCC-2998 colon): 51.3 µM
- TGI (HCC-2998 colon): > 100 µM
- GI50 (MALME-3M melanoma): 14.9 µM
- TGI (MALME-3M melanoma): 57.1 µM
- GI50 (RPMI-8226 leukemia): 19.9 µM
- TGI (RPMI-8226 leukemia): 40.8 µM
- GI50 (HT29 colon): 29.8 µM
- TGI (HT29 colon): > 100 µM
- GI50 (SF-539 CNS): 31.5 µM
- TGI (SF-539 CNS): > 100 µM
- GI50 (SR leukemia): 17.3 µM
- TGI (SR leukemia): 43.8 µM
- GI50 (MDA-MB-468 breast): 15.5 µM
- TGI (MDA-MB-468 breast): 45 µM
- GI50 (OVCAR-3 ovarian): 26.5 µM
- TGI (OVCAR-3 ovarian): > 100 µM
- GI50 (SK-MEL-28 melanoma): 22.8 µM
- TGI (SK-MEL-28 melanoma): > 100 µM
- GI50 (IGROV1 ovarian): 22.6 µM
- TGI (IGROV1 ovarian): 54.8 µM
- GI50 (ACHN renal): 31 µM
- TGI (ACHN renal): > 100 µM
- GI50 (NCI-H522 lung): 25.7 µM
- TGI (NCI-H522 lung): 78.2 µM
- GI50 (HCT-15 colon): 28.6 µM
- TGI (HCT-15 colon): 93.4 µM
- GI50 (SN12C renal): 25.1 µM
- TGI (SN12C renal): 91.3 µM
- GI50 (SK-OV-3 ovarian): 19.3 µM
- TGI (SK-OV-3 ovarian): 48.5 µM
- GI50 (CAKI-1 renal): 25.5 µM
- TGI (CAKI-1 renal): 77.6 µM
- GI50 (UO-31 renal): 31.6 µM
- TGI (UO-31 renal): > 100 µM
- GI50 (EKVX NSCLC): 42.1 µM
- TGI (EKVX NSCLC): > 100 µM
- GI50 (CCRF-CEM leukemia): 0.0269 µM
- TGI (CCRF-CEM leukemia): 11.7 µM
- GI50 (K-562 leukemia): 29.1 µM
- TGI (K-562 leukemia): > 100 µM
- GI50 (PC-3 prostate): 39.6 µM
- TGI (PC-3 prostate): > 100 µM
- GI50 (OVCAR-4 ovarian): 20.8 µM
- TGI (OVCAR-4 ovarian): 77 µM
- GI50 (NCI-H226 lung): 35.7 µM
- TGI (NCI-H226 lung): > 100 µM
- GI50 (SF-295 CNS): 27.9 µM
- TGI (SF-295 CNS): > 100 µM
- GI50 (HOP-62 NSCLC): 30.4 µM
- TGI (HOP-62 NSCLC): > 100 µM
- GI50 (COLO 205 colon): 38.8 µM
- TGI (COLO 205 colon): > 100 µM
- GI50 (DU-145 prostate): 34.9 µM
- TGI (DU-145 prostate): > 100 µM
- GI50 (SNB-19 CNS): 82.2 µM
- TGI (SNB-19 CNS): > 100 µM
- GI50 (TK-10 renal): 31.8 µM
- TGI (TK-10 renal): > 100 µM
- GI50 (SK-MEL-5 melanoma): 15 µM
- TGI (SK-MEL-5 melanoma): 41.4 µM
- GI50 (HL-60(TB) leukemia): 13 µM
- TGI (HL-60(TB) leukemia): 33.3 µM
- GI50 (T-47D breast): 6.04 µM
- TGI (T-47D breast): 37.3 µM
- GI50 (MOLT-4 leukemia): 17.5 µM
- TGI (MOLT-4 leukemia): 33.1 µM
- GI50 (NCI/ADR-RES ovarian): 77.4 µM
- TGI (NCI/ADR-RES ovarian): > 100 µM
- GI50 (SF-268 CNS): 34.7 µM
- TGI (SF-268 CNS): > 100 µM
- GI50 (RXF 393 renal): 30.9 µM
- TGI (RXF 393 renal): > 100 µM
- GI50 (SNB-75 CNS): 28.6 µM
- TGI (SNB-75 CNS): > 100 µM
- GI50 ([…]-0 renal): 34.7 µM
- TGI (786-0 renal): > 100 µM
- GI50 (MCF7 breast): 24.6 µM
- TGI (MCF7 breast): > 100 µM
- GI50 (KM12 colon): 42.6 µM
- TGI (KM12 colon): > 100 µM
- GI50 (HS 578T breast): 17.5 µM
- TGI (HS 578T breast): 51.4 µM
- GI50 (MDA-MB-435 melanoma): 54.4 µM
- TGI (MDA-MB-435 melanoma): > 100 µM
- GI50 (A498 renal): 19.3 µM
- TGI (A498 renal): 80.4 µM
- GI50 (UACC-257 melanoma): 27.2 µM
- TGI (UACC-257 melanoma): > 100 µM
- GI50 (UACC-62 melanoma): 29.1 µM
- TGI (UACC-62 melanoma): > 100 µM
- GI50 (M14 melanoma): 31.7 µM
- TGI (M14 melanoma): > 100 µM
- GI50 (OVCAR-8 ovarian): 48 µM
- TGI (OVCAR-8 ovarian): > 100 µM
- GI50 (NCI-H460 NSCLC): 30 µM
- TGI (NCI-H460 NSCLC): > 100 µM
- GI50 (A549 NSCLC): 33.6 µM
- TGI (A549 NSCLC): > 100 µM
- GI50 (SW-620 colon): > 100 µM
- TGI (SW-620 colon): > 100 µM
- GI50 (OVCAR-5 ovarian): 31.7 µM
- TGI (OVCAR-5 ovarian): > 100 µM
- GI50 (HOP-92 NSCLC): 32.1 µM
- TGI (HOP-92 NSCLC): > 100 µM
- GI50 (NCI-H322M lung): 30.3 µM
- TGI (NCI-H322M lung): > 100 µM
- GI50 (NCI-H23 lung): 28.7 µM
- TGI (NCI-H23 lung): > 100 µM
- GI50 (BT-549 breast): 36.9 µM
- TGI (BT-549 breast): > 100 µM
